One compound from patent US20250195523A1, “ORGANIC MOLECULES FOR TREATING MYELIN PATHOLOGIES” (ICM (INSTITUT DU CERVEAU ET DE LA MOELLE ÉPINIÈRE), priority 2022, published 2025) can be followed below.

The subject of assay [1] is cerebellar slices explants. Nature of the assay: Ex vivo cerebellar organotypic explant culture, differentiation and myelination index. The class given is cell-based, mice. The settings on record: 750 nM, three days (7-10 DIV). Here is the method:
We prepared cerebellar organotypic cultures from newborn (P0) mice. Cerebellar parasagittal slices (350 μm thick) were cut on a McIlwain tissue chopper and transferred onto 30 mm diameter Millipore culture inserts with […] (Millicell, Millipore). Slices were maintained in incubators at 37° C., under a humidified atmosphere containing 5% CO2 in six-well-plates containing 1 mL of slice culture media. This medium includes basal medium eagle (Invitrogen), 25% complete HBSS, 27 mM D-glucose, 100 U/mL penicillin/streptomycin, 1 mM glutamine (Sigma) and 5% horse serum (New Zealand origin, heat inactivated; Invitrogen). Medium was renewed every 2 days until 7 DIV, reaching the appropriate culture periods to study OPC differentiation and myelination. […] Slices were collected and fixed for 1 h at RT in PBS-4% paraformaldehyde, washed 3 times in PBS, and incubated 20 min at 4° C. in Clark's solution (95% ethanol/5% acetic acid), then washed 3 times in PBS 1×.
For ex-vivo cerebellar slices, slices were incubated 20 min at 4° C. in Clark's solution (95% ethanol/5% acetic acid), then washed 3 times in PBS 1×. Then, sections were incubated for 1 hour in a blocking buffer (0.2% Triton X-100/4% bovine serum albumin/4% donkey serum/PBS). Slices were incubated for 2 hours with the following primary antibodies at RT: Goat anti-Sox10 (1:100, R&D Systems); Rabbit anti-Calbindin (1:1000; Swant); Rat anti-MBP (1:200; Abcam); Mouse anti-CC1 (IgG2b; 1:100, Calbiochem). Then slices were washed 3 times in PBS/0.1% Triton X-100 and incubated in blocking buffer (dark, RT) for 2 hours with appropriate secondary antibodies conjugated with Alexa Fluor 488, 594 and 647 (1:1000; Molecular Probes or Thermo Fisher) and Dapi (1:5000 from working solution at 5 mg/ml; Life Technologies; D1306). Finally, slices were washed 3 times in PBS/0.1% Triton X-100 after incubation and mounted in Fluoromount-G (SouthernBiotech).
Then, we firstly performed a simpler and faster experimental model using cerebellar slices explants to identify the best drugs having pro-oligodendrogenenic and pro-myelinating activities in this ex vivo model, to be used in the in vivo analyses. Indeed, this model allowed us to better assess later aspects of OL maturation, myelination, and cytotoxicity in a richer cellular system, also containing immune cells (microglia/macrophages) that are known to influence oligodendrogenesis and (re) myelination. In this model, the start of myelination takes place after 7 days in culture (FIG. 3A). […] We then analyzed the effect in terms of OL numbers (CC1+/Sox10+ cells) and myelination (MBP labeling on CaBP+ Purkinje cell axons), by immunodetection of all four markers in the same sections. We calculated the differentiation index as the ratio of Sox10+ cells being CC1+, and the myelination index as the ratio CaBP+ axons being MBP+. […] On the one hand, we used the adult focal de/remyelination induced by intracerebral injection of […] (LPC) mimicking de/remyelination of MS, and on the other hand, the neonatal chronic hypoxia model, mimicking PTB hypomyelination.

For assay [2], the system named is neonatal chronic hypoxia model (dorsal SVZ and cortex). Nature of the assay: Neonatal chronic hypoxia model of preterm birth brain injury, intranasal administration. In kind it is in vivo, mice. The protocol:
Mice aged P1 were placed in a hypoxic rearing chamber maintaining at 9.5-10.5% O2 concentration by displacement with N2. Hypoxia began at the postnatal day 3 (P3) for 8 days until P11. A separate group was maintained in a normal atmosphere (normoxic group). […] Mucus was first permeabilized by the use of type IV hyaluronidase, then 10 μl of drugs (Sigma) was administered 3 times, 1 time a day from P11 to P13 (starting at the end of the hypoxic period, then every 24 hours) in sterile PBS (control). For analysis of proliferation, mice were injected with EdU (Sigma) in order to label cells in an actively cycling state in S-phase, then perfused 1 h later at P13. For analysis of OL maturation, mice were perfused at P19. All perfusions were performed with Ringer, followed by ice cold solution of 4% paraformaldehyde (Thermo Fisher). Mice were sacrificed at P13 or P19 by an intraperitoneal overdose of pentobarbital followed by perfusion with Ringer's lactate solution and 4% paraformaldehyde (PFA; Sigma) dissolved in 0.1M phosphate buffer (PB; pH 7.4). Brains were removed and post-fixed for 24 hours at 4° C. in 4% PFA and sectioned in 50 μm thick coronal serial sections, free floating sections.
For in vivo-cryosections (50 μm) of chronic hypoxia, antigen retrieval was performed for 20 min in a citrate buffer (ph 6.0) at 80° C., then cooled for 20 min at room temperature and washed in 0.1M PB. The following antibody were used for immunohistochemical procedures: Mouse anti-APC (CC1 IgG2B; 1:100, calbiochem); Mouse anti-Olig2 (1:1500; Millipore); Rabbit anti-Olig2 (1:400; Millipore); Rabbit anti-GSTpi (1:1000, Enzo). Blocking was performed in a TNB buffer (0.1 M PB; 0.05% Casein; 0.25% Bovine Serum Albumin; 0.25% TopBlock) with 0.4% triton-X (TNB-Tx). Sections were incubated overnight at 4° C. with gentle shaking. Following extensive washing in 0.1 M PB with 0.4% triton-X (PB-Tx), sections were incubated with appropriate secondary antibodies conjugated with Alexa Fluor 488 or 555 (1:500; Jackson or Invitrogen) for 2 hrs at room temperature. Sections were washed and counterstained with Dapi (1:5000 from a working solution at 5 mg/ml; Life Technologies; D1306). Revelation of EdU was done using Click-it™, EdU cell proliferation Kit for imaging, Alexa fluor™ 647 dye (Thermo Fisher scientific).
Chronic hypoxia is a well-established model of very preterm birth, that induces a diffuse perinatal brain lesion by housing the pups at 10% oxygen from P3 to P11 (FIG. 5A). This neonatal hypoxia induces a marginal cell death including neuronal and glial cells along with delay into forebrain development including OL maturation that appear to persist in adulthood. […] We next assessed the impact on OL differentiation by immunodetection of OLs with CC1 antibody and oligodendroglial cells by Olig2.

Consider `CCCCOc1ccc(C(=O)CCN2CCCCC2)cc1.Cl` [Sm5, Dyclonine hydrochloride], for which the “differentiation index (CC1+/Sox10+ OLs number)” value in assay [1] (compared to negative controls, FIG. 3B) was “increased differentiation index”. Also, the “myelination process (MBP+/CaBP+), myelination index” value in assay [1] (compared to vehicle, FIG. 3C) is recorded as “robust increase”. Further, the “EdU+ cell density within the subventricular zone (proliferation)” value in assay [2] (P13, intranasal P11 to P13, sm5 at 5 μg per g, sm11 at 0.5 μg per g, versus hypoxia, FIG. 6A) was “no marked additive effects”. Further, the “proportion of Olig2+ cells labeled with EdU (proliferative OPCs, dorsal SVZ)” value in assay [2] (P13, intranasal P11 to P13, versus hypoxia, FIG. 6B) is reported as “significant increase”. Besides, in assay [2] (P19, cortex, intranasal P11 to P13, after hypoxia, FIG. 5D), the “myelinating OLs (GSTπ+ cells), GSTπ expression” value is listed as “complete recovery”. The “OL differentiation, ratio of Olig2+ cells expressing CC1” value in assay [2] (P19, cortex, intranasal P11 to P13, compared to hypoxic and normoxic groups, FIG. 5C) was “increased OL differentiation beyond the normoxic and sm11 groups”. Moreover, the “density of oligodendroglial cells (Olig2+ cells) in the cortex” value in assay [2] (P19, intranasal P11 to P13, FIG. 5B) was “no major effect”.
